Reference: publication PMC8565515, “Dasabuvir Inhibits Human Norovirus Infection in Human Intestinal Enteroids” (mSphere, 2021)
Counter-ions that a name gives are not always drawn. Like-named read-outs stand apart in the source and are kept apart here.

How the values were obtained:
GII.4 HuNoV = GII.4 HuNoV infection of HIE monolayers, viral genome equivalents by RT-qPCR; format: cell-based, human norovirus; conditions: for activity at 10 µM: Norovirus, 24 h, read-out: (%) HuNoV GEs
[1] = compound 10 μM, n = 1, J2 HIE monolayers, GII.4 HuNoV, 24 hpi, normalized to DMSO control

Compound | (%) Cytotoxicity (J2 HIE monolayers; human, 24 h, 10 μM) [%] | activity at 10 µM (GII.4 HuNoV; [1]) [%] | other results
COC(=O)C1=C(C)NC(c2ncc(F)cc2F)=NC1c1ccc(F)cc1Cl (racemic) [Bay 41-4109 racemate] | – | – | (%) HuNoV GEs (GII.4 HuNoV; [1]): 39.26%
N[C@@H](CCC(=O)N[C@@H](CS[C@@H]1CCn2ccc(CO)c21)C(=O)NCC(=O)O)C(=O)O [6466-0862] | – | – | (%) Cytotoxicity (J2 HIE monolayers): -0.22%; (%) HuNoV GEs (GII.4 HuNoV; [1]): 155.85%
COC(=O)C(C)(N)C(C)(C)C (stereo not shown) [6526-0824] | – | – | (%) Cytotoxicity (J2 HIE monolayers): 2.41%; (%) HuNoV GEs (GII.4 HuNoV; [1]): 131.97%
O=C(O[C@@H]1Cc2c(O)cc(O)cc2O[C@@H]1c1cc(O)c(O)c(O)c1)c1cc(O)c(O)c(O)c1 [(-)-Epigallocatechin Gallate] | 2.41 | 198 | –
Nc1nc(NC2CC2)c2ncn([C@H]3C=C[C@@H](CO)C3)c2n1 [Abacavir] | 0.27 | 64.9 | –
Nc1nc2c(ncn2COCCO)c(=O)[nH]1 [Aciclovir] | 0.59 | 54.4 | –
CC(C)(C)C(=O)OCOP(=O)(COCCn1cnc2c(N)ncnc21)OCOC(=O)C(C)(C)C [Adefovir dipivoxil] | 3.59 | – | activity at 10 µM (GII.4 HuNoV): 67.1%
O=C1c2cccc(O)c2C(=O)c2c(O)cc(CO)cc21 [Aloe-emodin] | 0.59 | 253 | –
NC12CC3CC(CC(C3)C1)C2 [Amantadine hydrochloride] | – | 232 | –
Cc1cccc(C)c1N(CC(=O)Nc1ccc(-c2ncon2)cc1)C(=O)C1CCS(=O)(=O)CC1 [Amenamevir] | 0.09 | 61.7 | –
CC1(C)S[C@@H]2[C@H](NC(=O)[C@H](N)c3ccccc3)C(=O)N2[C@H]1C(=O)O [Ampicillin Trihydrate] | 1.14 | 100 | –
CC(C)CN(C[C@@H](O)[C@H](Cc1ccccc1)NC(=O)O[C@H]1CCOC1)S(=O)(=O)c1ccc(N)cc1 [Amprenavir] | -0.21 | 15.9 | –
C[C@@H]1CC[C@H]2[C@@H](C)C(=O)O[C@@H]3O[C@@]4(C)CC[C@@H]1[C@]32OO4 [Artemisinin] | 1.63 | 51.7 | –
COC(=O)N[C@H](C(=O)N[C@@H](Cc1ccccc1)[C@@H](O)CN(Cc1ccc(-c2ccccn2)cc1)NC(=O)[C@@H](NC(=O)OC)C(C)(C)C)C(C)(C)C [Atazanavir] | 0.72 | 66.4 | –
CC1(C)S[C@@H]2[C@H](NC(=O)[C@H](NC(=O)N3CCNC3=O)c3ccccc3)C(=O)N2[C@H]1C(=O)O [Azlocillin sodium] | – | 28 | –
O=C(O)[C@H]1O[C@@H](Oc2cc3oc(-c4ccccc4)cc(=O)c3c(O)c2O)[C@H](O)[C@@H](O)[C@@H]1O [Baicalin] | – | 97.7 | –
OC[C@H]1O[C@@H]2O[C@H]3[C@H](O)[C@@H](O)[C@@H](O[C@H]4[C@H](O)[C@@H](O)[C@@H](O[C@H]5[C@H](O)[C@@H](O)[C@@H](O[C@H]6[C@H](O)[C@@H](O)[C@@H](O[C@H]7[C@H](O)[C@@H](O)[C@@H](O[C@H]8[C@H](O)[C@@H](O)[C@@H](O[C@H]1[C@H](O)[C@H]2O)O[C@@H]8CO)O[C@@H]7CO)O[C@@H]6CO)O[C@@H]5CO)O[C@@H]4CO)O[C@@H]3CO [Beta-Cyclodextrin] | -0.91 | 70.6 | –
C=C(C)[C@@H]1CC[C@]2(CO)CC[C@]3(C)[C@H](CC[C@@H]4[C@@]5(C)CC[C@H](O)C(C)(C)[C@@H]5CC[C@]43C)[C@@H]12 [Betulin] | – | 69.8 | (%) Cytotoxicity (J2 HIE monolayers; human): 4.24%
C=C(C)[C@@H]1CC[C@]2(C(=O)O)CC[C@]3(C)[C@H](CC[C@@H]4[C@@]5(C)CC[C@H](O)C(C)(C)[C@@H]5CC[C@]43C)[C@@H]12 [Betulinic acid] | – | 16.4 | –
CCOC(=O)CCc1c(C)nc2c(c(C)nn2-c2ccc(C)cc2)c1C [C430-0518] | – | – | (%) Cytotoxicity (J2 HIE monolayers): -1.01%; (%) HuNoV GEs (GII.4 HuNoV; [1]): 170.30%
CCc1nn(CC(=O)NCCCN(CC)CC)c(=O)c2cc3sc(C)cc3n12 [C795-0720] | – | – | (%) Cytotoxicity (J2 HIE monolayers): 0.72%; (%) HuNoV GEs (GII.4 HuNoV; [1]): 100.75%
OC[C@H]1O[C@@H](O[C@@H]2OC=C[C@H]3[C@H](O)[C@@H]4O[C@]4(CO)[C@@H]23)[C@H](O)[C@@H](O)[C@@H]1O [Catalpol] | 3.07 | 104 | –
C=CC1=C(C(=O)O)N2C(=O)[C@@H](NC(=O)/C(=N\O)c3csc(N)n3)[C@H]2SC1 [Cefdinir] | 2.33 | 118 | –
CO/N=C(\C(=O)N[C@@H]1C(=O)N2C(C(=O)O)=C(C[N+]3(C)CCCC3)CS[C@H]12)c1csc(N)n1 [Cefepime Dihydrochloride Monohydrate] | 3.73 | 116 | –
C=CC1=C(C(=O)O)N2C(=O)[C@@H](NC(=O)/C(=N\OCC(=O)O)c3csc(N)n3)[C@H]2SC1 [Cefixime] | 2.28 | 41.9 | –
CO/N=C(\C(=O)N[C@@H]1C(=O)N2C(C(=O)O)=C(COC(C)=O)CS[C@H]12)c1csc(N)n1 [Cefotaxime sodium] | 0.51 | 10.1 | –
Cc1cc(O)cc(C)c1Cl [Chloroxylenol] | – | 65.9 | –
Clc1ccc(Cn2c(CN3CCCC3)nc3ccccc32)cc1 [Clemizole] | 3.11 | 85.7 | –

Compound | (%) Cytotoxicity (J2 HIE monolayers; human, 24 h, 10 μM) [%] | activity at 10 µM (GII.4 HuNoV; [1]) [%] | other results
Cc1cn([C@H]2O[C@@H](CO)[C@H](O)[C@H]2F)c(=O)[nH]c1=O [Clevudine] | -0.09 | 33.8 | –
Clc1ccccc1C(c1ccccc1)(c1ccccc1)n1ccnc1 [Clotrimazole] | 0.51 | 159 | –
CN(C)c1ccc(C(=C2C=CC(=[N+](C)C)C=C2)c2ccc(N(C)C)cc2)cc1 [Crystal Violet] | 55.49 | 14.5 | –
Nc1ccn([C@@H]2O[C@H](CO)[C@@H](O)[C@@H]2O)c(=O)n1 [Cytarabine] | -0.77 | 31.3 | –
COC(=O)N[C@H](C(=O)N1CCC[C@H]1c1nc(-c2ccc(-c3ccc(-c4c[nH]c([C@@H]5CCCN5C(=O)[C@@H](NC(=O)OC)C(C)C)n4)cc3)cc2)c[nH]1)C(C)C [Daclatasvir dihydrochloride] | 5.28 | 178 | –
CC(C)CN(C[C@@H](O)[C@H](Cc1ccccc1)NC(=O)O[C@H]1CO[C@H]2OCC[C@H]21)S(=O)(=O)c1ccc(N)cc1.CCO [Darunavir Ethanolate] | – | – | (%) HuNoV GEs (GII.4 HuNoV; [1]): 147.86%
CC(C)CN(C[C@@H](O)[C@H](Cc1ccccc1)NC(=O)O[C@H]1CO[C@H]2OCC[C@H]21)S(=O)(=O)c1ccc(N)cc1 [Darunavir] | – | 91.8 | –
C=C1CC[C@@H]2[C@](C)(COC(=O)CCC(=O)[O-])[C@H](OC(=O)CCC(=O)O)CC[C@@]2(C)[C@@H]1/C=C/C1=CCOC1=O.[K+] [Dehydroandrographolide Succinate Potasium Salt] | – | – | (%) HuNoV GEs (GII.4 HuNoV; [1]): 40.48%
C[C@@H]1CCO[C@H]2Cn3cc(C(=O)NCc4ccc(F)cc4F)c(=O)c(O)c3C(=O)N12 [Dolutegravir] | – | 8.52 | –
Cn1c(Cn2ccc(C(F)(F)F)c(Oc3cc(Cl)cc(C#N)c3)c2=O)n[nH]c1=O [Doravirine] | – | 32.7 | –
C[C@H](NC(=O)C(=O)Nc1ccccc1C(C)(C)C)C(=O)N[C@@H](CC(=O)O)C(=O)COc1c(F)c(F)cc(F)c1F [Emricasan] | – | 198 | –
Cc1nn(CCC(=O)Nc2cccc(C#N)c2)c(C)c1S(=O)(=O)N1CCCCC1 [G402-0939] | – | – | (%) HuNoV GEs (GII.4 HuNoV; [1]): 147.17%
Cc1cccc(N2CCN(S(=O)(=O)c3ccc4c(c3)CCCN4C(=O)C3CCC3)CC2)c1C [G855-2047] | – | – | (%) HuNoV GEs (GII.4 HuNoV; [1]): 133.69%
O=C(Nc1nc2ccc3scnc3c2s1)c1ccc2ccccc2c1 [KIN1148] | – | – | (%) HuNoV GEs (GII.4 HuNoV; [1]): 58.10%
NC(=O)N1CCC(CC(=O)N2CCC([C@H]3c4ncc(Br)cc4CCc4cc(Cl)cc(Br)c43)CC2)CC1 [Lonafarnib] | – | 62.3 | –
Cc1c(-c2cnccn2)ssc1=S [Oltipraz] | – | 7.76 | –
C[C@@]1(F)[C@H](O)[C@@H](CO)O[C@H]1n1ccc(=O)[nH]c1=O [PSI6206] | – | – | (%) HuNoV GEs (GII.4 HuNoV; [1]): 143.70%
NC(=O)c1ncn([C@@H]2O[C@H](CO)[C@@H](O)[C@H]2O)n1 [Ribavirin] | – | 64.5 | –
O=C(Nc1ccccc1)c1ccccc1O [Salicylanilide] | – | 85.5 | –
S=C(NCCc1ccccn1)Nc1ccc(Br)cn1 [Trovirdine] | – | – | activity at 10 µM (GII.4 HuNoV): 48.3%
CC(=O)Oc1c(C)c(C)c2c(c1C)CCC(C)(CCC[C@H](C)CCC[C@H](C)CCCC(C)C)O2 (stereo partly shown) [Vitamin E Acetate] | – | 55.8 | –
Cc1ccc(NC(=O)C(=O)NC2CC(C)(C)NC(C)(C)C2)cc1 [YYA-021] | – | – | (%) HuNoV GEs (GII.4 HuNoV; [1]): 54.17%
Cc1cn([C@H]2C[C@H](N=[N+]=[N-])[C@@H](CO)O2)c(=O)[nH]c1=O [Zidovudine] | – | 57.6 | –
Dermofongin | – | – | (%) HuNoV GEs (GII.4 HuNoV; [1]): 46.93%
Dicurone | – | – | (%) HuNoV GEs (GII.4 HuNoV; [1]): 90.75%
HZ-1157 | – | – | (%) HuNoV GEs (GII.4 HuNoV; [1]): 36.74%
Maraviroc | – | – | (%) HuNoV GEs (GII.4 HuNoV; [1]): 52.60%
